Measurements taken from article PMC8405639, “2-Carba-lysophosphatidic acid is a novel β-lysophosphatidic acid analogue with high potential for lysophosphatidic acid receptor activation and autotaxin inhibition” (Scientific Reports, 2021).

Columns and labels:
[1] = tested on: extracellular signal-regulated kinase (ERK) phosphorylation; assay: Western blot analysis of phosphorylated ERK in HeLa cells; type: cell-based; conditions: HeLa cells, 10 µM, 5 min, 37 °C, western blot
Method: Figure 3 Effects of 2-carba-lysophosphatidic acid (2carbaLPA) on the phosphorylation of the extracellular signal-regulated kinase (ERK) protein. HeLa cells were preincubated with 10 µM Ki16425 for 30 min at 37 °C and then incubated with 10 µM 2carbaLPA, lysophosphatidic acid (LPA) 18:1, or vehicle for 5 min at 37 °C. Protein levels of phosphorylated ERK, total ERK, and α-tubulin were determined by western blot analysis. The full-length blots are shown in the Supplementary Fig. S2.
HeLa cells were obtained from RIKEN RBC Cell Bank (Tsukuba, Japan). […] Cells were harvested using 0.125 M Tris–HCl (pH 6.8) supplemented with 4% sodium dodecyl sulphate (SDS), 20% glycerol, 10% 2-mercaptoethanol, and 0.01% bromophenol blue. Proteins were separated by SDS–polyacrylamide gel electrophoresis, and the proteins were transferred onto an Immobilon-P Transfer Membrane (Millipore, Burlington, MA, USA). The membrane was incubated with primary antibodies: anti-phospho-ERK (pERK), anti-ERK, and anti-tubulin (all at 1:1,000 dilution, Cell Signaling Technology, Danvers, MA, USA). Next, after washing, the membrane was treated with horseradish peroxidase-conjugated anti-rabbit IgG (1:1000 dilution; Cell Signaling Technology). Immunodetection was performed using an enhanced chemiluminescence system (EzWestLumi plus, ATTO Corporation, Tokyo, Japan) and ImageQuant LAS 4000 (GE healthcare, Buckinghamshire, UK).

[2] = 2carbaLPA detection in rat plasma after oral 2ccPA capsule; type: in vivo; conditions: oral gastro-resistant (entero-soluble) capsule of 2ccPA, 0-10 h
Description: Supplementary Figure S5. 2-carba-lysophosphatidic acid (2carbaLPA) produced in rat plasma from rats administered 2-carba-cyclic phosphatidic acid (2ccPA) as a gastro-resistant capsule. Rats were orally administered with 2ccPA containing capsule and 2carbaLPA produced in plasma was detected using liquid chromatography with tandem mass spectrometry (LC-QqQ) and presented as peak area (counts). Data are represented as mean ± standard deviation (n = 5 rat samples).
Preparation of 2ccPA intended to be administered as a gastro-resistant capsule, administration of the prepared 2ccPA in rats, and extraction of lipids from plasma samples were performed as per previously described methods^1. The experimental protocols were approved by the Animal Research Committee of the Saitama Medical University (approval number; 2113). Briefly, each capsule was filled with 19.70 ± 1.39 mg of 2ccPA and enteric-coated. Male 7-week-old Sprague Dawley rats were orally administrated with a single capsule and blood was collected from the jugular vein using a catheter from 0 to 10 h. Plasma was obtained by mixing with EDTA-Na2 (1 mg/mL), and the lipid fraction was extracted by adding acidic methanol, including LPA 17:0 (final concentration: 100 nM; Avanti Polar Lipids) as internal standard. Analysis for detection of 2carbaLPA with LC-QqQ was performed as above.

[3] = Degradation under acidic conditions (artificial gastric juice); type: physicochemical; conditions: artificial gastric juice pH 1.2, 2 h, 37 °C
Method: 2ccPA was dissolved in artificial gastric juice (2 g NaCl and 12 M HCl 7 mL/1000 mL water at pH 1.2) at a final concentration of 1 mg/mL and incubated for 2 h at 37 °C. Lipid fraction was extracted by 4 volumes of chloroform/methanol (2:1, v/v) and separated by TLC as per previously reported. Extraction from the silica powder of TLC was performed by addition of 8 mL of chloroform/methanol (1:9, v/v) and it was repeated three times. After filtration (0.2 μm Captiva Premium syringe PTFE filter, Agilent Technologies, Santa Clara, CA, USA), the sample was diluted 100-fold with 5 mM ammonium formate in methanol/water (95:5, v/v) and subjected to QqTOF. The 3ccPA degradation compound was also prepared using the same method. The purity of the degradation compound was confirmed to be more than 95% by TLC, QqTOF, and LC-QqQ. Quantification was performed by weighing the purified sample after dried more than 24 h in the desiccator equipped with a vacuum pump.

LPA4 = conditions: Ca2+ mobilization, RH7777 and CHO cells, less than 2 min incubation ref 17; cited from earlier work

SMILES: CCCCCCCC/C=C\CCCCCCCC(=O)OCC(CO)CP(=O)(O)O (stereo not shown) [2carbaLPA 18:1, 2-carba-lysophosphatidic acid]
- ERK phosphorylation (activation) [1]: activated ERK
- 2carbaLPA in plasma after administration of 2ccPA [2]: detectable

SMILES: CCCCCCCC/C=C\CCCCCCCC(=O)OC[C@@H]1CCP(=O)(O)O1 [3ccPA 18:1, 3-carba-cyclic phosphatidic acid]
- Conversion under acidic condition [3]: converted to the corresponding 3-carba-lysophosphatidic acid

SMILES: CCCCCCCC/C=C\CCCCCCCC(=O)OC[C@@H](O)CCP(=O)(O)O [3carba LPA 18:1, 3-carba-lysophosphatidic acid]
- Activity relative to LPA (times weaker), LPA4 (LPA4): more than 10 times
